Assay [1] addresses Beta-1 adrenergic receptor (Cavia porcellus, UniProt B0FL73). Description: Antagonist activity at beta1 adrenoceptor in guinea pig atrium assessed as inhibition of isoproterenol-induced response after 20 mins. More on the design: species or system Cardiac atrium. Particulars: read-out: pA2 (converted).
Assay [2] addresses Beta-2 adrenergic receptor (Cavia porcellus, UniProt Q8K4Z4). As to the kind of experiment: Antagonist activity at beta2 adrenoceptor in guinea pig trachea assessed as inhibition of isoproterenol-induced response after 20 mins. Particulars: read-out: pA2 (converted).
Assay [3] has as its target Beta-1 adrenergic receptor (Cavia porcellus) (UniProt B0FL73). Description: Competitive inhibition of beta1 adrenoceptor in guinea pig atrium assessed as inhibition of isoproterenol-induced response after 20 mins by Schild plot analysis. Particulars: Cardiac atrium.
For assay [4] the target is unchanged. Description: Intrinsic activity at beta1 adrenoceptor in guinea pig atrium relative to isoproterenol. The note with it: Cardiac atrium.
Assay [5] deals with Beta-2 adrenergic receptor (Cavia porcellus) (UniProt Q8K4Z4). Description: Intrinsic activity at beta2 adrenoceptor in guinea pig atrium relative to isoproterenol. Particulars: Cardiac atrium.
Chain of Beta-2 adrenergic receptor (Cavia porcellus) (Q8K4Z4 whole entry, looked up): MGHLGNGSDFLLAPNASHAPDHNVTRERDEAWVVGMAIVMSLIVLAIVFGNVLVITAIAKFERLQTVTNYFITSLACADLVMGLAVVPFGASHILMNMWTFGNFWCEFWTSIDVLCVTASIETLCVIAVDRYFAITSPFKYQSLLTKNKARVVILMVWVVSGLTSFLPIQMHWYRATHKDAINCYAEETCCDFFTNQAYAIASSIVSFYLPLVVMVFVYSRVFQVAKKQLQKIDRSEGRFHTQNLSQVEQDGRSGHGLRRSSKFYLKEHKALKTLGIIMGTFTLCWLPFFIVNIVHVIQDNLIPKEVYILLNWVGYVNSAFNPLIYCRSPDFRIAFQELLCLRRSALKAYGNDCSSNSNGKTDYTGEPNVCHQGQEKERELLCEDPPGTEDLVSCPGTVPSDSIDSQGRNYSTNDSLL
The next assay is filed under the species Cavia porcellus. Description: Selectivity ratio for beta1 adrenoceptor in guinea pig atrium over beta2 adrenoceptor in guinea pig trachea. It is filed as tissue-based. Particulars: Cardiac atrium.
The target in assay [6] is Beta-1 adrenergic receptor (Cavia porcellus) (UniProt B0FL73). Description: Partial agonist activity at beta1 adrenoceptor in guinea pig atrium. Particulars: Cardiac atrium.
Chain of Beta-1 adrenergic receptor (Cavia porcellus) (B0FL73 1-467): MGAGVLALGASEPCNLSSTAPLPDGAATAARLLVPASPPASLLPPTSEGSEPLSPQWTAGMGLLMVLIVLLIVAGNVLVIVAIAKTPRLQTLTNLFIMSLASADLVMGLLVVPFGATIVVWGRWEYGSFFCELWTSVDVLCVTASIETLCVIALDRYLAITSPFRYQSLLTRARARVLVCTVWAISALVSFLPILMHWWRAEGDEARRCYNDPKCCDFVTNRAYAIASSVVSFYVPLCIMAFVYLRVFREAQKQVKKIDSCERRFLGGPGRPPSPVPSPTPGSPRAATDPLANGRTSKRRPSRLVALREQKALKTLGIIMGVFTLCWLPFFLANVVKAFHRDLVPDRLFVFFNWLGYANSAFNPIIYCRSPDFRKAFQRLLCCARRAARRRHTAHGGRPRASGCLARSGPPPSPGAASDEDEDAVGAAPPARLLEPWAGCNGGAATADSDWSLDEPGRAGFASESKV
The target of assay [7] is Beta-2 adrenergic receptor (Cavia porcellus) (UniProt Q8K4Z4). As to the kind of experiment: Partial agonist at beta2 adrenoceptor in guinea pig trachea.

Consider 9 compounds from ChEMBL document CHEMBL3244030, “2-Methoxyphenylethanolamines, potential beta-adrenergic blocking agents” (J Med Chem, 1978).

Active and inactive are the calls of the source. No cut-off for these calls is given here.

Chain of Beta-2 adrenergic receptor (Q8K4Z4 whole entry): as the sequence (Q8K4Z4 whole entry, looked up) above
Chain of Beta-1 adrenergic receptor (B0FL73 whole entry): as the sequence (B0FL73 1-467) above

`Cc1ccc(C(O)CNC(C)C)cc1` (stereo not given): the Kb was 126 nM in assay [1] and 316 nM in assay [2].
As for `CC(C)NCC(O)c1cccc(Br)c1` (stereo not given), the Kb in assay [1] is 631 nM; in assay [2], 1260 nM.
`COc1cc(Br)ccc1C(O)CNC(C)C` (stereo not given): the inhibition entry in assay [3] was “Active”. Further, the Kb in assay [1] is 5.75 nM; in assay [2] it was 13.5 nM. Also, the Intrinsic activity in assay [4] and in assay [5] was 0.2 each time. Moreover, in the assay filed under Cavia porcellus, the Selectivity ratio was found to be 2.
Regarding `Cc1cccc(C(O)CNC(C)C)c1` (stereo not given), the Kb in assay [1] is 794 nM; in assay [2], 2000 nM.
For `CC(C)NCC(O)c1ccc(Br)cc1` (stereo not given), in that order: 158 nM and 200 nM.
Regarding `COc1cc(C)ccc1C(O)CNC(C)C` (stereo not given), the inhibition entry in assay [3] is “Active”. Further, the Kb is 10 nM in assay [1] and 398 nM in assay [2]. The Intrinsic activity in assay [4] and in assay [5] was 0.2 in each case. Moreover, the Selectivity ratio in the assay filed under Cavia porcellus was 40.
As to `COc1ccc(Br)cc1C(O)CNC(C)C` (stereo not given), the Kb in assay [1] was 1480 nM; in assay [2] it was 933 nM.
As for `COc1ccccc1C(O)CNC(C)C` (stereo not given), the Kb in assay [1] was 617 nM; in assay [2] it was 120 nM. Also, the pD2 in assay [6] is 6.3; in assay [7], 6.8. Moreover, the Intrinsic activity in assay [4] and in assay [5] was 0.5 throughout.
As for `COc1ccc(C)cc1C(O)CNC(C)C` (stereo not given), the Kb in assay [1] and in assay [2] was 2510 nM throughout.
